{"source": "patent US10772886B2", "about": "“CXCR-2 inhibitors for treating crystal arthropathy disorders” (ARDEA BIOSCIENCES, INC., priority 2016, dated 2020)", "key": {"[1]": {"test_system": "rat air pouch model of crystal-induced arthropathy (MSU)", "assay": "Rat air pouch model, Example 9 (Compound 4 in combination with colchicine)", "format": "in vivo", "protocol": "Sodium hydroxide (40 g, Fisher Scientific) was dissolved in de-ionized water (100 mL, dH2O) to provide a 10N solution. […] The resulting clear solution was cooled to 4-8° C., resulting in the formation of crystals, which were isolated by filtration, washed three times with de-ionized wa[…]) and dried at 37° C. The dried mono sodium urate crystals were sifted into an air-tight container for storage. […] Methylcellulose (0.4 g, Sigma) was dissolved in de-ionized water (100 mL) to provide a 0.4% solution used as vehicle. […] Test compounds were suspended in vehicle to provide the desired concentrations, and diluted accordingly. […] The animals were in apparent good health with no clinical signs of disease or distress. The rats were placed in quarantine with daily inspections, ear notched for identification purposes and shaved at the nape of the neck. The rats were anesthetized (isoflurane), and the nape of the neck was cleansed with 70% isopropanol (Butler Animal Health Supply) followed by povidone-iodine solution (Ricca Chemical Co.). Sterile air (30 mL, 0.2 μm, Millipore) was injected subcutaneously using a 23 G×11⁄2 inch needle fixed to a 30 mL syringe. The rats were returned to routine housing with no adverse reactions observed. The rats were anesthetized (isoflurane), and the nape of the neck was cleansed with 70% isopropanol (Butler Animal Health Supply) followed by povidone-iodine solution (Ricca Chemical Co.). Sterile air (15 mL, 0.11 μm, Millipore) was injected subcutaneously using a 23 G×11⁄2 inch needle fixed to a 20 mL syringe. The rats were returned to routine housing with no adverse reactions observed. The rats were weighed and sorted into treatment groups based on average body weight. As appropriate, the rats were dosed orally with test compound or vehicle (saline alone). […] Thirty minutes after SC injection or two hours after PO dosing, MSU (15 mL) was injected into the air pouch using an 18 G×2 inch needle fitted to a 20 mL syringe. Control group was injected with 15 mL sterile saline (vehicle). The injection sites were closed (collodion, Macron) and the rats returned to their cages with no adverse effects observed. Four hours after MSU/saline injection, the rats were anesthetized and heparinized saline (5 mL, 10 U/mL) was injected into the air pouch. […] An aliquot of the exudate was transferred to green Eppendorf tubes for total white blood cell (WBC) measurement. After allowing the MSU crystals to settle out for ten minutes, an aliquot of the exudate was transferred to heparinized microtainer tubes (Becton Dickinson) for differential white blood cell counts. The remainder of the exudate was centrifuged and an aliquot of the supernatants was dispensed to labeled clear Eppendorf tubes and stored at -80° C. The rats were exsanguinated into pre-chilled serum separator tubes, processed to serum, and 0.5 mL aliquot was stored at -80° C. in labeled Eppendorf tubes. […] [table]"}, "[2]": {"details": "cited from earlier work"}, "[3]": {"details": "in vivo; cited from earlier work"}, "neutrophils": {"test_system": "neutrophils", "assay": "Cell migration (chemotaxis) assay, neutrophil counts", "format": "cell-based", "details": "10 μM; MSU-conditioned media; FIG. 1A"}, "PBMCs": {"test_system": "PBMCs", "assay": "Cell migration (chemotaxis) assay, PBMC counts", "format": "cell-based", "details": "10 μM; MSU crystal conditioned media; FIG. 1B", "protocol": "Primary blood monocytes (PMBC) were obtained from the lymphocyte layer (buffy coat) of peripheral blood from normal donors. Each leukopack (Interstate Blood Bank) was diluted with an equal volume of PBS, and 35 mL of blood preparation was over-laid onto 15 mL of Ficoll-Paque™ PLUS (GE Healthcare Bio-Sciences). Tubes were centrifuged at 700×g without breaks for 30 minutes at room temperature. The buffy coat interface was removed, added to PBS (40 mL), and centrifuged at 300×g. Any remaining erythrocytes in the cell pellet were lysed by incubating cells in red blood cell lysis buffer (10 mL, R&D Systems) for 10 minutes at room temperature. Following lysis, PBS (40 mL) was added and the cells centrifuged for 5 minutes at 200×g. The pellet was washed once with PBS and re-suspended in complete RPMI and seeded onto a BD Falcon™ 100 mm tissue culture dish (Cat. No. 353003). After one hour, the media was aspirated and the adherent cells (predominantly monocytes) were harvested using a cell scraper and used in chemotaxis assays. Chemotaxis was assayed in 48-well plates with BD Falcon FluoroBlok Multiwell inserts with 3 μm pores (Cat. No. 351161 or 351162) coated with hFN. […] Fluorescence emitted from cells that had migrated to the bottom surface of the insert was measured at various time points. Cells labeled with Calcein AM were read at 485/530 nm (Ex/Em) wavelength. […]"}, "[4]": {"details": "cited from earlier work", "remark": "listed apart in the source"}, "[5]": {"details": "dog; cited from earlier work"}, "CXCR-2": {"molecular_target": "T1, CXCR-2 (Homo sapiens, UniProt P25025)", "T1 sequence (P25025 1-360)": "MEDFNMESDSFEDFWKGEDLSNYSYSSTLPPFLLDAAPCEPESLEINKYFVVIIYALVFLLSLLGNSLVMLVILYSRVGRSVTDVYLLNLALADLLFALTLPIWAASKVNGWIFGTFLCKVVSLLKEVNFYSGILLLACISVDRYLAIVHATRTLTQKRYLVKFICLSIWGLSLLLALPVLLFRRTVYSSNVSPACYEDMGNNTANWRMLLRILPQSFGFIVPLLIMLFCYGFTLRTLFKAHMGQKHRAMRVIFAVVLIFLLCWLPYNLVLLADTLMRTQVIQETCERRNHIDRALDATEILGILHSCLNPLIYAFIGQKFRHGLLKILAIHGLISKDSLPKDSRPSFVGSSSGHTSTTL", "details": "in vitro; cited from earlier work"}, "[6]": {"details": "rat; cited from earlier work"}, "[7]": {"details": "10 umol/kg PO + Colchicine 0.3 mpk SC, Group 10"}}, "note": "Read-outs that look alike come from different tables or passages of the source."}
{"compound": "CC1CN(S(=O)(=O)Nc2cc(O[C@H](C)[C@@H](O)CO)nc(SCc3ccc(F)cc3)n2)C1", "note": "[Compound 4, N-(6-(((2R,3S)-3,4-dihydroxybutan-2-yl)oxy)-2-((4-fluorobenzyl)thio)pyrimidin-4-yl)-3-methylazetidine-1-sulfonamide]", "values": [{"measurement": "Avg Exudate Vol", "setting": "[1]; [7]", "value": 7.8, "unit": "mL"}, {"measurement": "Avg Tot WBC", "setting": "[1]; [7]", "value": "20 ×10^6"}, {"measurement": "Neutrophils", "setting": "[1]; [7]", "value": "6.4 ×10^6"}, {"measurement": "Avg Exudate Vol", "setting": "[1]; 10.0 umol/kg PO, Group 6", "value": 12.5, "unit": "mL"}, {"measurement": "Avg Tot WBC", "setting": "[1]; 10.0 umol/kg PO, Group 6", "value": "160 ×10^6"}, {"measurement": "Neutrophils", "setting": "[1]; 10.0 umol/kg PO, Group 6", "value": "102.1 ×10^6"}, {"measurement": "Avg Exudate Vol", "setting": "[1]; 30.0 umol/kg PO, Group 7", "value": 6.7, "unit": "mL"}, {"measurement": "Avg Tot WBC", "setting": "[1]; 30.0 umol/kg PO, Group 7", "value": "28.7 ×10^6"}, {"measurement": "Neutrophils", "setting": "[1]; 30.0 umol/kg PO, Group 7", "value": "14 ×10^6"}, {"measurement": "Avg Exudate Vol", "setting": "[1]; 100 umol/kg PO, Group 8", "value": 6, "unit": "mL"}, {"measurement": "Avg Tot WBC", "setting": "[1]; 100 umol/kg PO, Group 8", "value": "12 ×10^6"}, {"measurement": "Neutrophils", "setting": "[1]; 100 umol/kg PO, Group 8", "value": "3.8 ×10^6"}, {"measurement": "Avg Exudate Vol", "setting": "[1]; 300 umol/kg PO, Group 9", "value": 5.2, "unit": "mL"}, {"measurement": "Avg Tot WBC", "setting": "[1]; 300 umol/kg PO, Group 9", "value": "8.1 ×10^6"}, {"measurement": "Neutrophils", "setting": "[1]; 300 umol/kg PO, Group 9", "value": "4.3 ×10^6"}]}
{"compound": "COc1cc2c(c(OC)c1OC)-c1ccc(OC)c(=O)cc1[C@@H](NC(C)=O)CC2", "note": "[Colchicine, COLCHICINE, reference compound]", "values": [{"measurement": "gastrointestinal side effects", "setting": "[2]; lower dose regimen: 1.2 mg at onset of acute gout attack, then 0.6 mg after one hour", "value": 24, "unit": "%"}, {"measurement": "gastrointestinal side effects", "setting": "[2]; standard dose regimen: 1.2 mg at onset of acute gout attack, then 0.6 mg every hour for 6 hours", "value": 73, "unit": "%"}, {"measurement": "Severe diarrhea, % of patients", "setting": "[2]; standard dose regimen", "value": 19, "unit": "%"}, {"measurement": "vomiting, % of patients", "setting": "[2]; standard dose regimen", "value": 15, "unit": "%"}, {"measurement": "Avg Exudate Vol", "setting": "[1]; 0.3 mpk SC, Group 3", "value": 12.4, "unit": "mL"}, {"measurement": "Avg Tot WBC", "setting": "[1]; 0.3 mpk SC, Group 3", "value": "120 ×10^6"}, {"measurement": "Neutrophils", "setting": "[1]; 0.3 mpk SC, Group 3", "value": "101.9 ×10^6"}, {"measurement": "Avg Exudate Vol", "setting": "[1]; 0.5 mpk SC, Group 4", "value": 8.8, "unit": "mL"}, {"measurement": "Avg Tot WBC", "setting": "[1]; 0.5 mpk SC, Group 4", "value": "58 ×10^6"}, {"measurement": "Neutrophils", "setting": "[1]; 0.5 mpk SC, Group 4", "value": "42.7 ×10^6"}, {"measurement": "Avg Exudate Vol", "setting": "[1]; 1.0 mpk SC, Group 5", "value": 5.6, "unit": "mL"}, {"measurement": "Avg Tot WBC", "setting": "[1]; 1.0 mpk SC, Group 5", "value": "16 ×10^6"}, {"measurement": "Neutrophils", "setting": "[1]; 1.0 mpk SC, Group 5", "value": "9.8 ×10^6"}, {"measurement": "eliminated unchanged in the urine", "setting": "[3]", "value": "10-20%"}]}
{"compound": "CC[C@@H](Nc1c(Nc2cccc(C(=O)N(C)C)c2O)c(=O)c1=O)c1ccc(C)o1", "note": "[Compound 2, (R)-2-hydroxy-N,N-dimethyl-3-((2-((1-(5-methylfuran-2-yl)propyl)amino)-3,4-dioxocyclobut-1-en-1-yl)amino)benzamide]", "values": [{"measurement": "inhibition of migration in neutrophils", "setting": "neutrophils", "value": "significant inhibition of migration"}, {"measurement": "inhibition in migration in PBMCs", "setting": "PBMCs", "value": "significant inhibition in migration"}]}
{"compound": "C[C@@H](Oc1cc(NS(=O)(=O)N2CCC2)nc(SCc2cccc(F)c2F)n1)[C@@H](O)CO", "note": "[Compound 3, N-(2-((2,3-difluorobenzyl)thio)-6-(((2R,3S)-3,4-dihydroxybutan-2-yl)oxy)pyrimidin-4-yl)azetidine-1-sulfonamide]", "values": [{"measurement": "solubility properties", "setting": "[4]", "value": "good"}, {"measurement": "half-life", "setting": "[5]", "value": "long"}, {"measurement": "potency", "setting": "CXCR-2", "value": "high"}, {"measurement": "bioavailability", "setting": "[6]", "value": 49, "unit": "%"}]}
